Active and inactive are the calls of the source.
Assays:
[1] = MC4R antagonists, dose response, counter-screen for LGR2 antagonist project, cell-based, plate reader, cherry pick (AID 743444); type: functional;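 also: transfected HEK 293 cells stimulated with alpha-MSH peptide; potency of inhibitors of the alpha-MSH evoked signal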
[2] = LGR2 antagonists, dose response, cell-based, HEK293, CRE-luciferase reporter, cherry pick, set 2 (AID 743343); type: functional;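 also: transfected cells were stimulated with diluted bursicon conditioned medium after compound addition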
[3] = molecular target: T1, High affinity choline transporter 1 (Homo sapiens, UniProt Q9GZV3); experiment: CHT inhibitors, dose response, cell-based, 5-point CRC, membrane potential dye (AID 504840); type: functional
T1 sequence (Q9GZV3 whole entry): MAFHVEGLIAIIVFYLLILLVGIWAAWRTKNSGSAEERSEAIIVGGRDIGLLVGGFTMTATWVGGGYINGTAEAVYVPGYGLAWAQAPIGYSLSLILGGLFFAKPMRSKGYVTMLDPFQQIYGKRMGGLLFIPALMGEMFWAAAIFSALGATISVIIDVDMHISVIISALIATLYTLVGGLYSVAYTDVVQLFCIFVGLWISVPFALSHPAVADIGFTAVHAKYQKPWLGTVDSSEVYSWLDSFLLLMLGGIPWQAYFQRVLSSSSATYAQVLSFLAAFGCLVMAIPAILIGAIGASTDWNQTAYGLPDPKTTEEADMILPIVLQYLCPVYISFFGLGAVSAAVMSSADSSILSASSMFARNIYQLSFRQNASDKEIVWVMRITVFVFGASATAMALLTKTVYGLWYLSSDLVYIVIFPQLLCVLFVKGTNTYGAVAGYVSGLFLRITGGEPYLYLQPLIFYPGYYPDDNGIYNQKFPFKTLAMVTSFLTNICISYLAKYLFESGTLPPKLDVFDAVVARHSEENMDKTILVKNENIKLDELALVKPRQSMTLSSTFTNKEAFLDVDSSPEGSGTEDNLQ

P388 = experiment: cells; type: functional; conditions: Mus musculus
SN12K1 = experiment: cells; type: functional; conditions: Homo sapiens
P388/ADR = experiment: cells; type: functional; conditions: Mus musculus
Fatty acid synthase [4] = molecular target: T2, Fatty acid synthase (Homo sapiens, UniProt P49327); experiment: FAS thioesterase domain inhibitors, dose response, biochemical, endpoint fluorescence intensity, uHTS hits (AID 624327); type: functional;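 also: fluorescence from hydrolysis of an O-methyl fluorescein acyl ester substrate by the enzyme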
T2 sequence (P49327 whole entry, the tested form may be a part): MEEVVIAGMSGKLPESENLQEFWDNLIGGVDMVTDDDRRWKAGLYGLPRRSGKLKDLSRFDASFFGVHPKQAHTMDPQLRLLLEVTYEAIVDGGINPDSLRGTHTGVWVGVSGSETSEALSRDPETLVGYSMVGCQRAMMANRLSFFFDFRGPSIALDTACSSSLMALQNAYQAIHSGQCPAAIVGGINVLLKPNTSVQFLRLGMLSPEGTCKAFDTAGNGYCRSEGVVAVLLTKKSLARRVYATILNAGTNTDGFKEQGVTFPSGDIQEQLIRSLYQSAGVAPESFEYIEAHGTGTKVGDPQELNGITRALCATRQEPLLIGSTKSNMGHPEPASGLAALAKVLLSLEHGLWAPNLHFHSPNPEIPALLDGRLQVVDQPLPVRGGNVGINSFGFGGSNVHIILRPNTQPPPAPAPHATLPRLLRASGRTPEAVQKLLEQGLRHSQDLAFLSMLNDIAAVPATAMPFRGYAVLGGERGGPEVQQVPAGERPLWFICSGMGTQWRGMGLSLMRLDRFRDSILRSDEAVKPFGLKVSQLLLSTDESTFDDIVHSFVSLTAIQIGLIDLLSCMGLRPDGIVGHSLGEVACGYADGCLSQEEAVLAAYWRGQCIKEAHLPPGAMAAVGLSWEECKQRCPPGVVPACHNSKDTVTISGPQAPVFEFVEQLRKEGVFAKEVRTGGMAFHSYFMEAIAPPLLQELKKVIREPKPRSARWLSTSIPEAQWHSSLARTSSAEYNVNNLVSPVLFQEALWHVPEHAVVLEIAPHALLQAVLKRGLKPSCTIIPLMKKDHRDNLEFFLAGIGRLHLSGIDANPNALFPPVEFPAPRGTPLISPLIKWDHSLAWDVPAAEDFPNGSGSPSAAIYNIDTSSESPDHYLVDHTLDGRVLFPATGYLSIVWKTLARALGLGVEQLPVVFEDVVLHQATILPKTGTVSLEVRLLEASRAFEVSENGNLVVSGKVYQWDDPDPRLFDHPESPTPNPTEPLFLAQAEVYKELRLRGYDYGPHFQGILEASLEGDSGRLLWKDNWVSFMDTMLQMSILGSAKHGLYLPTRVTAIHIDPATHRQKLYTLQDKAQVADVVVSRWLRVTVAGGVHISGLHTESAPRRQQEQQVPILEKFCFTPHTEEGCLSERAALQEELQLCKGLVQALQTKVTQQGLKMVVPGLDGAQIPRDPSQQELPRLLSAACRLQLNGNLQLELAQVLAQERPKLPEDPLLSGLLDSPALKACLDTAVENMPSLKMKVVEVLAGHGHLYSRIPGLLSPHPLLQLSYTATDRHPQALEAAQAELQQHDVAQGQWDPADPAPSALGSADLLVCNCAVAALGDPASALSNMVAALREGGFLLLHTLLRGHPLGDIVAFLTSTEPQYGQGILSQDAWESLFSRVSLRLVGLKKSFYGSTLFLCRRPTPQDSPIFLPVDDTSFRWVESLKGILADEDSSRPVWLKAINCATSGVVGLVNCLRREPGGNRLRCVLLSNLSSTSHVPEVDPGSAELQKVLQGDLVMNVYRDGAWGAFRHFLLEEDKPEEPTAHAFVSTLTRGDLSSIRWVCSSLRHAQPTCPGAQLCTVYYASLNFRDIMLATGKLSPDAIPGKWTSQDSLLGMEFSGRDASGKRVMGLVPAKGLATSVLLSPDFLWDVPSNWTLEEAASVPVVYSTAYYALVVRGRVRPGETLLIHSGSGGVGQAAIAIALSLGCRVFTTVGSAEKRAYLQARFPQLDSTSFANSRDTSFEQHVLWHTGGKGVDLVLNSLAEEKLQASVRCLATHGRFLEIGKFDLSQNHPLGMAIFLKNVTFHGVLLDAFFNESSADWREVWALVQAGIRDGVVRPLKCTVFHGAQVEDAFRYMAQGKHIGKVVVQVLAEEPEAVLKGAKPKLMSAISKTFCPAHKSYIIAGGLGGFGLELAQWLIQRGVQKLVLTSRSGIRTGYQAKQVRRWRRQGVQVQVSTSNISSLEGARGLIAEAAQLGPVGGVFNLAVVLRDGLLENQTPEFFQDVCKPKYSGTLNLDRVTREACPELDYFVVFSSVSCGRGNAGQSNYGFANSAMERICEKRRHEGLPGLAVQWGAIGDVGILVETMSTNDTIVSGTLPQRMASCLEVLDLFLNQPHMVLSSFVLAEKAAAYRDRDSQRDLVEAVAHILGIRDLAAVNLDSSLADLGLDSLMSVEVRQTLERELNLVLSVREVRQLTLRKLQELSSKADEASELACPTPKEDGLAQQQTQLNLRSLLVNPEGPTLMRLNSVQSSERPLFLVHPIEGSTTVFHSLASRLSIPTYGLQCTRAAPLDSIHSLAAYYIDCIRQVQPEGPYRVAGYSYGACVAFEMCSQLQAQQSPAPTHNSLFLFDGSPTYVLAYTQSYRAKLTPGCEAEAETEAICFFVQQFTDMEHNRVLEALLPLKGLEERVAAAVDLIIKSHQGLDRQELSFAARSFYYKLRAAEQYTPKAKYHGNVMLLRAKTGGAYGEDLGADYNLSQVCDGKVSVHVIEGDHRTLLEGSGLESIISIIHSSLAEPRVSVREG

Fatty acid synthase [5] = molecular target: T2, Fatty acid synthase; experiment: FAS thioesterase domain inhibitors, dose response, biochemical, kinetic fluorescence intensity (AID 624326); type: functional;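 also: rate of fluorescence rise from hydrolysis of a fluorogenic O-methyl fluorescein ester substrate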
[6] = inhibitors of HIV Env-driven cell fusion, dose response, cherry-pick (AID 652057); type: functional, cell-based
[7] = molecular target: Voltage-dependent T-type calcium channel subunit alpha-1H (Homo sapiens, UniProt O95180); type: functional;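 also: channel activity triggered by adding a high calcium stimulation buffer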
Voltage-dependent T-type calcium channel subunit alpha-1H, sequence (O95180 whole entry, the tested form may be a part): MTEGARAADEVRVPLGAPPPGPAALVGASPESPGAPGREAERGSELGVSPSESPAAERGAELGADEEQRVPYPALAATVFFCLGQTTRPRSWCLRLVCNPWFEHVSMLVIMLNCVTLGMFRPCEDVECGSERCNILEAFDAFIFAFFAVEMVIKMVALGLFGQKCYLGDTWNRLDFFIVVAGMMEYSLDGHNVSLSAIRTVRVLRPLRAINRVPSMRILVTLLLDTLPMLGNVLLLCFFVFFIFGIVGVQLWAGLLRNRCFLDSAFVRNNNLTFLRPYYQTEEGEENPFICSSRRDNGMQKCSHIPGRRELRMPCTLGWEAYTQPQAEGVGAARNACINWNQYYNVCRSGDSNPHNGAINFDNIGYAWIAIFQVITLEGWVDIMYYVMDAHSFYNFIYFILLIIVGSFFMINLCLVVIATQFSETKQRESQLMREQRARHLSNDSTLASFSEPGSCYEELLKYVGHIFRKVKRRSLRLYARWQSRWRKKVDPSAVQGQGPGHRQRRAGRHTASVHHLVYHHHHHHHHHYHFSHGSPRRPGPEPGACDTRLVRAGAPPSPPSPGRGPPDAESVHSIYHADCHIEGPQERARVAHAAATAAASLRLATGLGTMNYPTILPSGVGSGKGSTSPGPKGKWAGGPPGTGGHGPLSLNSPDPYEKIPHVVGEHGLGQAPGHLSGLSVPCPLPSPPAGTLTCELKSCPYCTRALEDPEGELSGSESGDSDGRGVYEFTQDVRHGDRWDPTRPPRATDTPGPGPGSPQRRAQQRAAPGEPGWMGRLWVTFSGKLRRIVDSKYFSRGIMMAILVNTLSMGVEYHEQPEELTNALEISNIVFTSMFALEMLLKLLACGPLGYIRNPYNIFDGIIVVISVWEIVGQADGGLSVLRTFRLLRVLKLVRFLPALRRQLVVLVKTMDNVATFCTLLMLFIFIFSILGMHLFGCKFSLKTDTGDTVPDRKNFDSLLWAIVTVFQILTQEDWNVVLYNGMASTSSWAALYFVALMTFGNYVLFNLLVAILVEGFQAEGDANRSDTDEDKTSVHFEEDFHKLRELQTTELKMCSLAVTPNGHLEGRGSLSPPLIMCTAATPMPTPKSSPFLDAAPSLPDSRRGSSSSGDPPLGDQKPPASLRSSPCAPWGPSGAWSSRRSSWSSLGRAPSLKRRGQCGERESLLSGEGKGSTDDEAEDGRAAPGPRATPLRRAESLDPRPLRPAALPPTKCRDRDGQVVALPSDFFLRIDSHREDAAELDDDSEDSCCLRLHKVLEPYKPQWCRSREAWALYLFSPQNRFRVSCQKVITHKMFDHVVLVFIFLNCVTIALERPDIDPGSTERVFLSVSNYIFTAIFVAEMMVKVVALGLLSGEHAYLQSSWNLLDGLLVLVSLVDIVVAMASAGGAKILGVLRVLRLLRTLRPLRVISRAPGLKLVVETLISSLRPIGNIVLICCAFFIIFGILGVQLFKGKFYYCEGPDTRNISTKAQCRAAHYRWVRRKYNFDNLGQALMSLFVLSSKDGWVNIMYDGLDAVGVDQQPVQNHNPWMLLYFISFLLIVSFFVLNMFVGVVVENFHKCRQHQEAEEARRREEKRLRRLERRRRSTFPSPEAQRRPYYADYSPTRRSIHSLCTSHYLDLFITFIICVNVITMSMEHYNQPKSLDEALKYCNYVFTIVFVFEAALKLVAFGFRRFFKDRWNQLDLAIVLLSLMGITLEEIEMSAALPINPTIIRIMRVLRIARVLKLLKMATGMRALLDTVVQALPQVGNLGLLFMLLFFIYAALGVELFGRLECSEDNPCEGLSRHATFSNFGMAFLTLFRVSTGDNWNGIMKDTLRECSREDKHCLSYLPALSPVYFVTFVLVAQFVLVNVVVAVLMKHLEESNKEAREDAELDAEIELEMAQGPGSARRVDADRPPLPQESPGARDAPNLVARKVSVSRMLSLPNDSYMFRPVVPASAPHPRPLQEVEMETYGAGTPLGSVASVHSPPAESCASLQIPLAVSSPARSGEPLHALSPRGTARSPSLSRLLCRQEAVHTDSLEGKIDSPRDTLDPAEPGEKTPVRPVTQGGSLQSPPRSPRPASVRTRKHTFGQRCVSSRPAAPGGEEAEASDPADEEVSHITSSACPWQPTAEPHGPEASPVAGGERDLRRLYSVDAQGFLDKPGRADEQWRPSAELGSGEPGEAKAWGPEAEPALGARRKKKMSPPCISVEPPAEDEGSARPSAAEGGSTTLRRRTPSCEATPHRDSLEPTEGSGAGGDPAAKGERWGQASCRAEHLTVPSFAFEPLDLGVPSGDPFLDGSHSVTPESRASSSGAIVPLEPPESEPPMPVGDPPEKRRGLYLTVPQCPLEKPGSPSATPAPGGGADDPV

[8] = ZM109 Env clade C HIV-1 fusion inhibitors, dose response, HeLa effector, CEM target cells, luciferase, cherry-pick (AID 652058); type: functional, cell-based
[9] = molecular target: T3, Long-chain-fatty-acid--AMP ligase FadD28 (Mycobacterium tuberculosis, UniProt P9WQ59); experiment: Fluorescence polarization aasay to screen for inhibitors that compete for the binding of FadD28 to a bisubstrate Measured in Biochemical System Using Plate Reader - 2147-01_Inhibitor_Dose_CherryPick_Activity.; type: functional, Mycobacterium tuberculosis H37Rv
T3 sequence (P9WQ59 whole entry): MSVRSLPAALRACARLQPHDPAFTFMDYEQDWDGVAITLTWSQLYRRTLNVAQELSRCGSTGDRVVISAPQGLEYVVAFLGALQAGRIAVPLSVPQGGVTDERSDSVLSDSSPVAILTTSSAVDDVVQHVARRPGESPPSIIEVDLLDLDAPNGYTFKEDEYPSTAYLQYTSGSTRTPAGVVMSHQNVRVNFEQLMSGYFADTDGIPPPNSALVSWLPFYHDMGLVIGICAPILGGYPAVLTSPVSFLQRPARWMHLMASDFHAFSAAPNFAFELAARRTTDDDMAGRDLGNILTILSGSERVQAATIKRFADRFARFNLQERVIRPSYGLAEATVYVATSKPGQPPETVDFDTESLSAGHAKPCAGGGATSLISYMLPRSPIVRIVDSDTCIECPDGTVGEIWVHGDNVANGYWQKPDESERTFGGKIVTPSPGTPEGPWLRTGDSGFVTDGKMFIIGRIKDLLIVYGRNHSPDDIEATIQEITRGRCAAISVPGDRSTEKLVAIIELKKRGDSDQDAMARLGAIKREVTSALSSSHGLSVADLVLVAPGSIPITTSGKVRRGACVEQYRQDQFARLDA

[10] = A549 cell cytotoxicity, dose response, cytotoxicity control, plate reader, cherry-pick, antagonist series (AID 743412); type: functional, cell-based
Paired box protein Pax-8 = Paired box protein Pax-8 (Homo sapiens, UniProt Q06710); experiment: inhibitors of PAX8-driven TPO luciferase reporter, dose response, RMG-I cells, cherry-pick (AID 687027); type: functional, cell-based;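 also: luciferase reporter driven by Pax8 target thyroperoxidase promoter measured by SteadyGlo luminescence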
[11] = molecular target: T4, Heat shock factor protein 1 (Mus musculus, UniProt P38532); experiment: inhibition of MG132-induced HSE-luciferase signal, confirmation, cell-based, NIH3T3, luminescence, dose retest (AID 2382); type: functional;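 also: NIH3T3 fibroblasts with HSF1-driven luciferase reporter stressed by proteasome inhibitor MG132; luminescence from HSF1-driven luciferase expression after 8 hours of MG132 stress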
T4 sequence (P38532 whole entry): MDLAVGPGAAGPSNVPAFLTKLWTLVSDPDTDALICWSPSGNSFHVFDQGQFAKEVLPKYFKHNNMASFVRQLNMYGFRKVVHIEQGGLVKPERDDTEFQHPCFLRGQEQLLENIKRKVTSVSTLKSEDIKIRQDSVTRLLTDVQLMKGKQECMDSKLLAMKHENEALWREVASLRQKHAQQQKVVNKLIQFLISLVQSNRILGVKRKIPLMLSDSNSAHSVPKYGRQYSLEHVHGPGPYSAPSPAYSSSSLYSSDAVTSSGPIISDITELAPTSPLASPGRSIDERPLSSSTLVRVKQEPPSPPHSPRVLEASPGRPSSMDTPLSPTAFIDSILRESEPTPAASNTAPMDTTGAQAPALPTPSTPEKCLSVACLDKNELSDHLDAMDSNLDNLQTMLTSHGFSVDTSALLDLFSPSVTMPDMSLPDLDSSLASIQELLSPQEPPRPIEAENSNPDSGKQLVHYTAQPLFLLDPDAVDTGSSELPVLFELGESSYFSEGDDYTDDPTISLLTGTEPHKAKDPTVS

[12] = HepG2 cell cytotoxicity, dose response, cytotoxicity control, plate reader, cherry-pick, antagonist series (AID 743416); type: functional, cell-based
cells = type: functional
[13] = Luminescence Cell-Based Dose Retest to Confirm Inhibitors of Cancer Stem Cells. [Related pubchem assays (depositor defined):AID2717, AID2721]; type: functional; conditions: Homo sapiens
[14] = molecular target: Heat shock protein HSP 90-alpha (Homo sapiens, UniProt P07900); type: functional, organism-based
Streptococcus = experiment: Group A Streptococcus viability loss, dose response, counter-screen for streptokinase expression inhibitor project, luminescence, BacTiterGlo (AID 1915); type: functional, organism-based;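 also: potency for reduction of bacterial viability or growth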
[15] = test system: Streptococcus sp. 'group A'; experiment: growth inhibition of control SK(-) GAS strain, dose response, counter-screen for streptokinase expression inhibitor project, luminescence, kanamycin, BacTiterGlo, confirmation (AID 1900); type: functional, organism-based
Streptokinase A = molecular target: T5, Streptokinase A (Streptococcus pyogenes serotype M1, UniProt P10520); experiment: S. pyogenes streptokinase expression inhibitors, potency, dose response, plasminogen activation absorbance, OD405 (AID 1914); type: functional, Streptococcus pyogenes M1 GAS;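 also: secreted streptokinase activity via plasminogen activation per viability signal from cell pellet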
T5 sequence (P10520 whole entry): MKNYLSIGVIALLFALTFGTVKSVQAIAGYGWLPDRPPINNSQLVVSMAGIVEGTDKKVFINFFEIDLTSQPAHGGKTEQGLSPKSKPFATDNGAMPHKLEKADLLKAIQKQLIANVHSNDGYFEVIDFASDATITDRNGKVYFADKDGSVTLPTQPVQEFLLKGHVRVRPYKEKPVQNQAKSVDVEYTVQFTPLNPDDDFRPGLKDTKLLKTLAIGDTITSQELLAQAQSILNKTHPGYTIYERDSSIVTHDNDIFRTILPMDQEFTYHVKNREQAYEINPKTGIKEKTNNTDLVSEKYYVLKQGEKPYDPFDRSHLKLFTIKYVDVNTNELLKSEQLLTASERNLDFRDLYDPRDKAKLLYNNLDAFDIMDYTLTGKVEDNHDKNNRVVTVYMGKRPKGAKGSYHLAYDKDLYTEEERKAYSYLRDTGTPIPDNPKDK

CCc1nc(Sc2nnnn2-c2ccccc2)c2c3c(sc2n1)CCCC3
AC50 [1]: 5.14 µM (active)
AC50 [2]: 5.1 µM (active)

Cc1ccc(C(C)C)c(OCCOCCN2CCNCC2)c1
IC50 [3]: 13.8 µM (active)

COc1cc(/N=N\c2cccc(S(=O)(=O)O)c2)ccc1/N=N\c1ccc(/C=C/c2ccc(-n3on3-c3ccc(/C=C/c4ccc(/N=N/c5ccc(/N=N\c6cccc(S(=O)(=O)O)c6)cc5OC)cc4S(=O)(=O)O)c(S(=O)(=O)O)c3)cc2S(=O)(=O)O)c(S(=O)(=O)O)c1
GI50 (P388): > 100 µM (inactive)
GI50 (SN12K1): > 100 µM (inactive)
GI50 (P388/ADR): > 100 µM (inactive)

Cc1c2ccncc2c(C)c2c1[nH]c1ccc(Cl)cc12
GI50 (P388): 1.63 µM (inactive)
GI50 (SN12K1): 2.94 µM (inactive)
GI50 (P388/ADR): 1.83 µM (inactive)

Cc1nn(Cc2ccc([N+](=O)[O-])cc2)c(=O)n1-c1cccc(Cl)c1
IC50 (Fatty acid synthase [4]): 5.54 µM (active)
IC50 (Fatty acid synthase [5]): 8.36 µM (active)

COc1ccc([N+](=O)[O-])cc1NC(=O)N(C)Cc1ccco1
IC50 (Fatty acid synthase [4]): 17.7 µM (active)
IC50 (Fatty acid synthase [5]): 21.1 µM (inactive)

CCOC(=O)[C@@H]1[C@H]2COc3cc(OC)ccc3[C@H]2N2C(=O)N(c3cccc(F)c3)C(=O)[C@@]12C
AC50 [6]: 35.2 µM (active)

CCS(=O)(=O)C1=NSC2=NC(=O)/C(=C\c3ccc(OS(=O)(=O)c4ccccc4)c(OC)c3)C(=N)N21
IC50 [3]: 13.5 µM (active)

S=c1sc2c(s1)SC(c1ccccc1)CS2 (stereo unspecified)
GI50 (P388): 9.86 µM (inactive)
GI50 (SN12K1): > 89.5 µM (inactive)
GI50 (P388/ADR): 44.6 µM (inactive)

Cc1cccc(C)c1/N=C1\C(Cl)=C(O)OC1OC(=O)c1ccccc1 (stereo unspecified)
IC50 (Fatty acid synthase [4]): 4.46 µM (active)
IC50 (Fatty acid synthase [5]): 4.54 µM (active)

COc1ccc(C(c2nnnn2Cc2ccc(F)cc2)N2CCN(c3ccccc3)CC2)cc1 (stereo unspecified)
EC50 [7]: 2.66 µM (active)

Cc1ccc(C(=O)NCC(=O)OCc2nnc(-c3ccc([N+](=O)[O-])cc3)o2)cc1
IC50 (Fatty acid synthase [4]): 4.73 µM (active)
IC50 (Fatty acid synthase [5]): 5.56 µM (active)

N/C(=N\O)N/N=C\c1ccc(O)c(O)c1O
GI50 (P388): 14.4 µM (inactive)
GI50 (SN12K1): 17.7 µM (inactive)
GI50 (P388/ADR): 8.65 µM (inactive)

COC(=O)C[C@H]1C=C[C@H](NC(=O)c2ccccn2)[C@@H](CO)O1
AC50 [8]: 0.414 µM (active)

O=C(O)c1ccc(-c2nc(-c3ccccc3)c(-c3ccccc3)[nH]2)cc1
AC50 [9]: 92.3 µM (active)

CC(=O)Nc1ccc(S(=O)(=O)c2ccnc3cc(Cl)ccc23)cc1
AC50 [10]: 26.9 µM (active)
AC50 (Paired box protein Pax-8): 0.449 µM (active)
AC50 [2]: 66.3 µM (active)

Cn1c(SCC(=O)Nc2ncc(C(F)(F)F)cc2Cl)nnc1-c1ccc(Cl)cc1
IC50 (Fatty acid synthase [4]): 0.551 µM (active)
EC50 [11]: > 195 µM (not active)
IC50 (Fatty acid synthase [5]): 0.572 µM (active)

CCCC[S+]([O-])CC(CO)NC(=O)/C=C/c1c(C)[nH]c(=O)[nH]c1=O (stereo unspecified)
GI50 (P388): 1.58 µM (inactive)
GI50 (SN12K1): 6.01 µM (inactive)
GI50 (P388/ADR): 1.5 µM (inactive)

COc1ccccc1/C=C1\SC(=O)N(CC(=O)NCCCn2ccnc2)C1=O
IC50 [3]: 19.1 µM (active)

COc1cc(C2c3cc4c(cc3[C@@H](Nc3ccc(Oc5ccccc5)cc3)C3COC(=O)[C@H]23)OCO4)cc(OC)c1O (stereo partly specified)
GI50 (P388): 0.0504 µM (active)
GI50 (SN12K1): 0.935 µM (active)
GI50 (P388/ADR): 0.407 µM (active)

CC(CN1CC(=O)NC(=O)C1)N1CC(=O)NC(=O)C1 (stereo unspecified) [RAZOXANE]
GI50 (P388): 1.85 µM (inactive)
GI50 (SN12K1): 58.1 µM (inactive)
GI50 (P388/ADR): 141 µM (inactive)

c1ccc(COc2cccc(-c3cc4nc(NCCCn5ccnc5)ccn4n3)c2)cc1
AC50 [10]: 40 µM (active)
AC50 [12]: > 52 µM (inactive)

Cc1ccccc1-n1nc2c(c1NC(=O)c1ccc(Br)o1)CSC2
EC50 [7]: 5.29 µM (active)

COC(=O)CSc1nnc(-c2ccc(NS(=O)(=O)c3ccccc3)cc2)o1
IC50 [3]: 12 µM (active)

O=C(CCC1CCCC1)NCCCNC(=O)CCC1CCCC1
IC50 [3]: 15.8 µM (active)

Cc1ccc(-c2noc(CCC(=O)Nc3cccc(C#N)c3)n2)cc1
EC50 [7]: 2.84 µM (active)
IC50 (cells): 19.9 µM (active)

Cc1cccc(NC(=O)CN2C(=O)N/C(=C/c3ccc(-c4cccc(C(=O)O)c4C)o3)C2=O)c1
AC50 [9]: 72.3 µM (active)

CC(=O)c1cc(C#N)c(SCCC(C)C)nc1C
IC50 (Fatty acid synthase [4]): 9.77 µM (active)
IC50 (Fatty acid synthase [5]): 9.54 µM (active)

Cc1ccc(C(=O)N2CCN(c3ccccc3)CC2)cc1S(=O)(=O)N1CCCC1
IC50 [3]: 11 µM (active)

C=CCc1cc(C)ccc1OCC(O)CN1CCN(c2ccccc2)CC1 (stereo unspecified)
EC50 [7]: 8.33 µM (active)

S=C(NCc1ccccc1)NCc1cccc(CNC(=S)NCc2ccccc2)c1
AC50 [9]: 27.3 µM (active)

Cc1ccc(S(=O)(=O)N(CC(=O)N2CCN(c3ccc(F)cc3)CC2)C2CCCCC2)cc1
EC50 [7]: 4.33 µM (active)

Clc1ccc(CSc2nnnn2-c2ccc3c(c2)OCO3)c(Cl)c1
AC50 [13]: 13.1 µM (active)
EC50 [7]: 9.79 µM (active)

Cc1cccc(NC(=O)COC(=O)c2cccc(S(=O)(=O)N3CCCCCC3)c2)c1
AC50 [9]: 7.43 µM (active)

Cc1ccc(N/N=C(\C=O)C(=O)c2ccc(Cl)cc2)cc1
AC50 [14]: 5.6 µM (active)
EC50 (Streptococcus): 14.8 µM (active)
EC50 [11]: 4.78 µM (active)
EC50 [15]: 8.86 µM (active)
EC50 (Streptokinase A): > 50 µM (not active)

— ChEMBL document CHEMBL1201862, “PubChem BioAssay data set” (2004)
